Reference: ChEMBL document CHEMBL5331097, “Synthesis and evaluation of a new class of MIF-inhibitors in activated macrophage cells and in experimental septic shock in mice” (Eur J Med Chem, 2023)
Active and inactive are the calls of the source. The rule behind the calls is not given here.

Assays:
[1] = molecular target: T1, Macrophage migration inhibitory factor (Homo sapiens, UniProt P14174); assay: Inhibition of human recombinant MIF ketonase activity using phenylpyruvate as substrate
T1 sequence (P14174 whole entry): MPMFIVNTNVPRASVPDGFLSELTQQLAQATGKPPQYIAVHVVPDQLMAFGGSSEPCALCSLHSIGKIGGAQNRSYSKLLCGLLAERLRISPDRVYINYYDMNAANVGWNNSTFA

[2] = molecular target: T1, Macrophage migration inhibitory factor; assay: Inhibition of human recombinant MIF enolase activity using phenylpyruvate as substrate
RAW264.7 [3] = assay: Antiproliferative activity against LPS induced mouse RAW264.7 cells at 50 uM measured after 24 hrs; format: functional, cell-based
RAW264.7 [4] = assay: Antiinflammatory activity in LPS induced mouse RAW264.7 cells assessed as reduction of ROS production at 50 uM pretreated for 30 mins followed by LPS addition measured after 24 hrs measured by fluorescence based assay; format: functional, cell-based; conditions: time 24.5 hrs
RAW264.7 [5] = assay: Antiinflammatory activity in LPS induced mouse RAW264.7 cells assessed as reduction of nitrite production at 50 uM pretreated for 30 mins followed by LPS addition measured after 24 hrs measured by Griess reagent method; format: functional, cell-based; conditions: time 24.5 hrs
RAW264.7 [6] = assay: Reduction of macrophage activation in LPS induced mouse RAW264.7 cells assessed as NF-kappaB activation at 50 uM pretreated for 30 mins followed by LPS addition measured after 24 hrs relative to control; format: functional; parameters: scale not given: the % may be the effect or the level left; conditions: time 24.5 hrs
RAW264.7 [7] = assay: Reduction of macrophage activation in LPS induced mouse RAW264.7 cells assessed as reduction in TNF-alpha production at 50 uM pretreated for 30 mins followed by LPS addition after 24 hrs by ELISA method; format: functional, cell-based; conditions: time 24.5 hrs
RAW264.7 [8] = assay: Reduction of macrophage activation in LPS induced mouse RAW264.7 cells assessed as reduction in IL-6 production at 50 uM pretreated for 30 mins followed by LPS addition after 24 hrs by ELISA method; format: functional, cell-based; conditions: time 24.5 hrs
Mus musculus = assay: Protection against C57BL/6 mouse assessed as increase in LPS-induced colonic temperature at 1.8 mg/kg, ip for 30 mins followed by LPS addition measured from 130 to 360 mins; format: functional, organism-based; conditions: time 160-390 min
RAW264.7 [9] = assay: Antiproliferative activity against LPS induced mouse RAW264.7 cells assessed as decrease in number of living cells at 50 uM pretreated for 30 mins followed by LPS addition measured after 24 hrs relative to control; format: functional; parameters: scale not given: the % may be the effect or the level left; conditions: time 24.5 hrs
RAW264.7 [10] = assay: Reduction of macrophage activation in LPS induced mouse RAW264.7 cells assessed as NF-kappaB activation at 50 uM pretreated for 30 mins followed by LPS addition measured after 24 hrs; format: functional, cell-based; conditions: time 24.5 hrs

| SMILES | IC50 ([1]; read-out: IC50) | IC50 ([2]; read-out: IC50) | also measured |
| --- | --- | --- | --- |
| COc1ccc2c(c1)C/C(=C\c1cccc(O)c1O)C2=O | 67.3 µM | 28.9 µM |  |
| O=C1/C(=C/c2ccc[nH]2)CCc2cc(O)ccc21 | 162 µM | 81.3 µM |  |
| COc1cc(/C=C2\Cc3ccccc3C2=O)ccc1O | 96.5 µM | 14.5 µM |  |
| Cc1ccc(/C=C2\CCc3cc(O)ccc3C2=O)cc1 | 51.5 µM | 71.4 µM |  |
| COc1ccc2c(c1)CC/C(=C\c1cccnc1)C2=O | 63.4 µM | 81.4 µM |  |
| COc1ccc2c(c1)CC/C(=C\c1ccc(O)c(O)c1)C2=O | 78 µM | 132 µM |  |
| COc1ccc2c(c1)CC/C(=C\c1ccncc1)C2=O | 58.8 µM | 107 µM |  |
| COc1cc(/C=C2\CCc3cc(OC)c(OC)cc3C2=O)ccc1O |  | 104 µM | IC50 [1]: Not Active |
| COc1cc(/C=C2\CCc3ccccc3C2=O)ccc1O | 51.1 µM |  |  |
| COc1cc(/C=C2\CCc3cc(O)ccc3C2=O)cc(OC)c1OC | 64.7 µM | 484 µM |  |
| COc1ccc2c(c1)CC/C(=C\c1ccc(C)cc1)C2=O |  | 2620 µM | IC50 [1]: Not Active |
| O=C1/C(=C/c2ccc(O)cc2)CSc2ccccc21 | 99.3 µM | 827 µM |  |
| N#Cc1ccc(/C=C2\CCc3cc(O)ccc3C2=O)cc1 | 68 µM |  | IC50 [2]: Not Active |
| O=C1/C(=C/c2ccc(O)cc2)CCCc2ccccc21 | 67.2 µM | 13.8 µM |  |
| COc1ccc2c(c1)C(=O)/C(=C/c1ccc(OC)c(O)c1)C2 | 204 µM | 73.8 µM |  |
| O=C1/C(=C/c2c[nH]c3ccccc23)CCc2cc(O)ccc21 | 60.7 µM | 210 µM |  |
| O=C1/C(=C/c2cc(O)cc(O)c2)CCc2ccccc21 | 65 µM | 24.9 µM |  |
| COc1ccc(/C=C2\CCc3cc(O)ccc3C2=O)cc1 | 67.2 µM | 44 µM |  |
| O=C1/C(=C/c2ccc(O)cc2)COc2ccccc21 | 127 µM | 72.7 µM |  |
| O=C1/C(=C/c2cccnc2)CCc2cc(O)ccc21 | 72.6 µM | 33.3 µM |  |

The remaining molecules from weak to strong by IC50 ([1]; read-out: IC50), led by results:

| IC50 ([1]; read-out: IC50) | IC50 ([2]; read-out: IC50) | SMILES | also measured |
| --- | --- | --- | --- |
| 51 µM | 6.46 µM | O=C1/C(=C/c2cccs2)CCc2cc(O)ccc21 |  |
| 49.2 µM | 1.94 µM | O=C1/C(=C/c2ccc(O)cc2)CCc2ccccc21 | Activity (RAW264.7 [3]): inactive; Activity (RAW264.7 [6]): ~35%; Activity (RAW264.7 [7]): Active; Activity (RAW264.7 [8]): Active; Activity (Mus musculus): Active |
| 49.2 µM | 53 µM | COc1ccc2c(c1)CC/C(=C\c1ccc(O)c(OC)c1)C2=O |  |
| 48.9 µM | 126 µM | COc1ccc2c(c1)CC/C(=C\c1ccccc1)C2=O |  |
| 42.7 µM | 23.4 µM | O=C1/C(=C/c2ccccc2)COc2cc(O)ccc21 |  |
| 40.7 µM | 401 µM | O=C1/C(=C/c2ccccc2O)Cc2ccccc21 |  |
| 39.1 µM | 50.2 µM | O=C1/C(=C/c2ccccc2O)CCc2cc(O)ccc21 |  |
| 35.2 µM |  | O=C1/C(=C/C=C/c2ccccc2)CCc2cc(O)ccc21 | IC50 [2]: Not Active |
| 33.4 µM | 102 µM | O=C1/C(=C/c2ccc(O)cc2)CS(=O)(=O)c2ccccc21 |  |
| 32.1 µM | 65.9 µM | O=C1/C(=C/c2ccccn2)CCc2cc(O)ccc21 |  |
| 31.4 µM | 38.2 µM | O=C1/C(=C/c2ccco2)CCc2cc(O)ccc21 |  |
| 30.4 µM | 30.9 µM | COc1cc(/C=C2\CCc3cc(O)ccc3C2=O)ccc1O |  |
| 29.8 µM | 1160 µM | O=C1/C(=C/c2ccccc2O)CCc2ccccc21 |  |
| 25.7 µM | 39.7 µM | CN(C)c1ccc(/C=C2\CCc3cc(O)ccc3C2=O)cc1 |  |
| 25.4 µM | 35.9 µM | O=C1/C(=C/c2cccc(O)c2)CCc2ccccc21 |  |
| 23.9 µM |  | O=C1/C(=C/c2ccc(O)cc2)CCc2cc(O)ccc21 | IC50 [2]: Not Active |
| 22 µM | 65.8 µM | O=C1/C(=C/c2ccc3c(c2)OCO3)CCc2cc(O)ccc21 |  |
| 19.8 µM | 38.3 µM | COc1ccc2c(c1)C(=O)/C(=C/c1ccc(O)c(OC)c1)C2 |  |
| 19.6 µM | 111 µM | O=C1/C(=C/c2cccc(O)c2)CCc2cc(O)ccc21 |  |
| 12.9 µM |  | O=C1/C(=C/c2ccc(O)c(O)c2)Cc2ccccc21 | IC50 [2]: Not Active |
| 9.88 µM | 17 µM | COc1ccc2c(c1)C(=O)/C(=C/c1cccc(O)c1O)C2 |  |
| 8.75 µM | 41.3 µM | CCN(CC)CCOc1ccc(/C=C2\CCc3cc(O)ccc3C2=O)cc1 |  |
| 4.95 µM | 1.32 µM | COc1ccc(/C=C2\Cc3ccccc3C2=O)cc1O | Activity (RAW264.7 [9]): 80.46%; Activity (RAW264.7 [10]): inactive; Activity (RAW264.7 [7]): Active; Activity (RAW264.7 [8]): Active |
| 2.99 µM | 2.98 µM | COc1ccc2c(c1)CC/C(=C\c1ccc(O)cc1)C2=O |  |
| 2.12 µM | 4.43 µM | CC(C)c1ccc(/C=C2\CCc3cc(O)ccc3C2=O)cc1 |  |
| 2.05 µM | 39.3 µM | O=C1/C(=C/c2cccc(O)c2O)Cc2ccccc21 |  |
| 2.04 µM | 1.99 µM | O=C1/C(=C/c2ccccc2)CCc2cc(O)ccc21 | Activity (RAW264.7 [3]): inactive; Activity (RAW264.7 [4]): inactive; Activity (RAW264.7 [5]): Active; Activity (RAW264.7 [6]): ~35%; Activity (RAW264.7 [7]): Active; Activity (RAW264.7 [8]): Active |
| 1.54 µM | 8.72 µM | O=C1/C(=C/c2ccc(O)cc2)COc2cc(O)ccc21 | Activity (RAW264.7 [3]): inactive; Activity (RAW264.7 [5]): Active; Activity (RAW264.7 [10]): inactive; Activity (RAW264.7 [7]): Active; Activity (RAW264.7 [8]): Active |
| 0.88 µM | 1.22 µM | O=C1/C(=C/c2ccc(O)cc2)Cc2ccccc21 | Activity (RAW264.7 [3]): inactive; Activity (RAW264.7 [10]): inactive; Activity (RAW264.7 [7]): Active; Activity (RAW264.7 [8]): Active |
